Data: ChEMBL document CHEMBL1201862, “PubChem BioAssay data set” (2004)
Calls of active or inactive are those of the source.

Experiments:
[1] = growth suppression of PTEN-null colon cells, dose response, cell-based, HCT116 PTEN knockout (AID 1047); type: functional;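 note: HCT116 colon tumor cells with PTEN knocked out; cells exposed to compound for 60 hours before readout; potency for loss of cell viability measured by luminescence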
[2] = biological target: T1, High affinity choline transporter 1 (Homo sapiens, UniProt Q9GZV3); test: CHT activators, dose response, cell-based, 10-point CRC, membrane potential dye (AID 602376); type: functional
T1 sequence (Q9GZV3 whole entry): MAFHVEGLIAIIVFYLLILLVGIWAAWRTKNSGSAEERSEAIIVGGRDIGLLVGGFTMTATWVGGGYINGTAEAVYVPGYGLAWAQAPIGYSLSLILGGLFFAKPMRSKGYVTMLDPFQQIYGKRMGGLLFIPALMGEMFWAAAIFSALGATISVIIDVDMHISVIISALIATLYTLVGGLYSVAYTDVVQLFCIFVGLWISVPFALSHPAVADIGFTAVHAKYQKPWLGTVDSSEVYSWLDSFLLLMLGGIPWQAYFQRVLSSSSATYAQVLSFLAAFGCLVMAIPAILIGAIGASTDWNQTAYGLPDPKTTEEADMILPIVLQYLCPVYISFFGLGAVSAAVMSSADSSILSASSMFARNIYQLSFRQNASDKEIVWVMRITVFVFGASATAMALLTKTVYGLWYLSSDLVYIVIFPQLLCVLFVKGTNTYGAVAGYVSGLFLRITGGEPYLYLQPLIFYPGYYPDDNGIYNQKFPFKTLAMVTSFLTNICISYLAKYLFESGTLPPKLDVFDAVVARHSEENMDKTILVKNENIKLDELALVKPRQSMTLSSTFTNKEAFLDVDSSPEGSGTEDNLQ

[3] = growth suppression of beta-catenin-knockout colon cells, dose response, cell-based, HCT116, human colon tumor (AID 1045); type: functional;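 note: HCT116 colon tumor cells with beta catenin knocked out; cells exposed to compound for 60 hours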
[4] = inhibitors of non-replicating M. tuberculosis, dose response, luciferase, dry powder (AID 651619); type: functional; details: Mycobacterium tuberculosis
[5] = biological target: Glycogen synthase kinase-3 alpha (Homo sapiens, UniProt P49840); test: Inhibition of Human GSK-3 alpha Activity Measured in Biochemical System Using Microfluidics - 2063-06_Inhibitor_Dose_DryPowder_Activity_Set2. [Related pubchem assays (depositor defined):AID2709]
[6] = biological target: Glycogen synthase kinase-3 beta (Homo sapiens, UniProt P49841); test: Inhibition of Human GSK-3 beta Activity Measured in Biochemical System Using Microfluidics - 2063-05_Inhibitor_Dose_DryPowder_Activity_Set2. [Related pubchem assays (depositor defined):AID2709]
[7] = inhibitors of non-replicating M. tuberculosis, dose response, luciferase, dry powder (AID 651620); type: functional; details: Mycobacterium tuberculosis
[8] = A549 cell cytotoxicity, dose response, cytotoxicity control, plate reader, cherry-pick, antagonist series (AID 743412); type: functional, cell-based
[9] = biological target: T2, Orexin/Hypocretin receptor type 1 (Homo sapiens, UniProt O43613); test: (§1) Fluorescence-based cell-based high throughput dose response assay for antagonists of the orexin 1 receptor (OX1R; HCRTR1). [Related pubchem assays (depositor defined):AID434989, AID435008, AID463079, AID485270, AID492963, AID492964, AID492965, AID493232, AID504717, AID504718]; type: functional
T2 sequence (O43613 whole entry): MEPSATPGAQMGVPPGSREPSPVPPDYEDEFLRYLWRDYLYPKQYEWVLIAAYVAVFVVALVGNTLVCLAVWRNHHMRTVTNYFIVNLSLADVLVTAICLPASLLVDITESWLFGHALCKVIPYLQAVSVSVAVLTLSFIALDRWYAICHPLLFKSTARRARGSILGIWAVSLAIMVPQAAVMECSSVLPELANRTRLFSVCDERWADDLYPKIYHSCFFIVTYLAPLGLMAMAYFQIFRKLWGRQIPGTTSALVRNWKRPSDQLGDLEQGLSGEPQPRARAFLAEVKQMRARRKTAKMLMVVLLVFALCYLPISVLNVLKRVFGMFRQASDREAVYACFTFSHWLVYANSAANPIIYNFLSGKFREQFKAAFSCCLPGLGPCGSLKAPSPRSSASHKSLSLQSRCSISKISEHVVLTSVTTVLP

CHO-K1 = test: (§2) Counterscreen for antagonists of the orexin 1 receptor (OX1R; HCRTR1): Homogeneous time resolved fluorescence (HTRF)-based cell-based dose response assay to identify antagonists of the parental CHO-K1 cell line. [Related pubchem assays (depositor defined):AID434989, AID435008, AID463079, AID485270, AID492963, AID492964, AID492965, AID493232, AID504699, AID504701]; type: functional; details: Cricetulus griseus
Streptococcus = test: Group A Streptococcus viability loss, dose response, counter-screen for streptokinase expression inhibitor project, luminescence, BacTiterGlo (AID 1915); type: functional, organism-based;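 note: potency for reduction of bacterial viability or growth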
Orexin receptor type 2 [10] = biological target: T3, Orexin receptor type 2 (Homo sapiens, UniProt O43614); test: Counterscreen assay for antagonists of the orexin 1 receptor (OX1R; HCRTR1): Homogeneous Time Resolved Fluorescence (HTRF)-based cell-based dose response assay for antagonists of the orexin 2 receptor (OX2R; HCRTR2), run by assay provider.; type: functional
T3 sequence (O43614 whole entry): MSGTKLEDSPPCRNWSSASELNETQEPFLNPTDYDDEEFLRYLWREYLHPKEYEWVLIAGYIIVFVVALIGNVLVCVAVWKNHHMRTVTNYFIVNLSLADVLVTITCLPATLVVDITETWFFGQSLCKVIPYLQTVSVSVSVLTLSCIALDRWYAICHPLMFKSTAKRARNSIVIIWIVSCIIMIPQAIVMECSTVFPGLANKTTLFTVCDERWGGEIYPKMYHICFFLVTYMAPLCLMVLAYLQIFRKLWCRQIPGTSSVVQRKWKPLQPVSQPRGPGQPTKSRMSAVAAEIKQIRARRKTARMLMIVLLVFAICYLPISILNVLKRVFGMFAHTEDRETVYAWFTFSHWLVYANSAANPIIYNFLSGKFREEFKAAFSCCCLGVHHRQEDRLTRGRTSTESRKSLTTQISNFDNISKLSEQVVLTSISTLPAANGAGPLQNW

[11] = HepG2 cell cytotoxicity, dose response, cytotoxicity control, plate reader, cherry-pick, antagonist series (AID 743416); type: functional, cell-based
[12] = biological target: T2, Orexin/Hypocretin receptor type 1; test: as §1, with “Homogeneous Time Resolved Fluorescence (HTRF)-based” for “Fluorescence-based”; type: functional
Streptokinase A = biological target: T4, Streptokinase A (Streptococcus pyogenes serotype M1, UniProt P10520); test: S. pyogenes streptokinase expression inhibitors, potency, dose response, plasminogen activation absorbance, OD405 (AID 1914); type: functional, Streptococcus pyogenes M1 GAS;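 note: secreted streptokinase activity via plasminogen activation per viability signal from cell pellet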
T4 sequence (P10520 whole entry): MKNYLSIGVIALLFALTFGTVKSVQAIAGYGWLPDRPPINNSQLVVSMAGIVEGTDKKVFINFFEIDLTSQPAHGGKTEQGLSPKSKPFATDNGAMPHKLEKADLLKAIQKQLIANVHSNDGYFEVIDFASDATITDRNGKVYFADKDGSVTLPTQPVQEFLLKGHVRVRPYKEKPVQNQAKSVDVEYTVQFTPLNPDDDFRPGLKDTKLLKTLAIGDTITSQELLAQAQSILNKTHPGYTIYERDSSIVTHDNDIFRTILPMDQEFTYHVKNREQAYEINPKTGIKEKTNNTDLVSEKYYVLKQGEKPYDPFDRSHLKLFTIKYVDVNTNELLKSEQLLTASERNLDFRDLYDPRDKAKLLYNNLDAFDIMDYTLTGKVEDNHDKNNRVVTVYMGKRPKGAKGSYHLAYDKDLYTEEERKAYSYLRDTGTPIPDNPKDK

[13] = MC4R antagonists, dose response, counter-screen for LGR2 antagonist project, cell-based, plate reader, cherry pick (AID 743444); type: functional;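 note: transfected HEK 293 cells stimulated with alpha-MSH peptide; potency of inhibitors of the alpha-MSH evoked signal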
[14] = test system: Streptococcus sp. 'group A'; test: growth inhibition of control SK(-) GAS strain, dose response, counter-screen for streptokinase expression inhibitor project, luminescence, kanamycin, BacTiterGlo, confirmation (AID 1900); type: functional, organism-based
[15] = as §2, with “Fluorescence-based” for “Homogeneous time resolved fluorescence (HTRF)-based”, “cell-based high throughput” for “cell-based”, “CHO” for “CHO-K1”; type: functional
Orexin receptor type 2 [16] = biological target: T3, Orexin receptor type 2; test: Counterscreen assay for antagonists of the orexin 1 receptor (OX1R; HCRTR1): Fluorescence-based cell-based dose response assay for antagonists of the orexin 2 receptor (OX2R; HCRTR2), run by assay provider.; type: functional
[17] = HEK293 cell cytotoxicity, dose response, cytotoxicity control, plate reader, cherry-picked samples (AID 743446); type: functional, cell-based
CAAX prenyl protease 2 = biological target: T5, CAAX prenyl protease 2 (Saccharomyces cerevisiae S288c, UniProt Q03530); type: biochemical
T5 sequence (Q03530 whole entry): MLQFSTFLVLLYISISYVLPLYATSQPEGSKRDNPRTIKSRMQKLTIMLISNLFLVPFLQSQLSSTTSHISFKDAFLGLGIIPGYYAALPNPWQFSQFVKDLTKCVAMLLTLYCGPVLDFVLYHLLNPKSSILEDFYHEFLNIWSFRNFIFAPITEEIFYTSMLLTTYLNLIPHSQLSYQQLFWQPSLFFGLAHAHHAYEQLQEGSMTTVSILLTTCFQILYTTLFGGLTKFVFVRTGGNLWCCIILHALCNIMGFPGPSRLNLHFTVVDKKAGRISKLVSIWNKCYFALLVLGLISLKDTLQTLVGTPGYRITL

Chain of Glycogen synthase kinase-3 beta (P49841 whole entry): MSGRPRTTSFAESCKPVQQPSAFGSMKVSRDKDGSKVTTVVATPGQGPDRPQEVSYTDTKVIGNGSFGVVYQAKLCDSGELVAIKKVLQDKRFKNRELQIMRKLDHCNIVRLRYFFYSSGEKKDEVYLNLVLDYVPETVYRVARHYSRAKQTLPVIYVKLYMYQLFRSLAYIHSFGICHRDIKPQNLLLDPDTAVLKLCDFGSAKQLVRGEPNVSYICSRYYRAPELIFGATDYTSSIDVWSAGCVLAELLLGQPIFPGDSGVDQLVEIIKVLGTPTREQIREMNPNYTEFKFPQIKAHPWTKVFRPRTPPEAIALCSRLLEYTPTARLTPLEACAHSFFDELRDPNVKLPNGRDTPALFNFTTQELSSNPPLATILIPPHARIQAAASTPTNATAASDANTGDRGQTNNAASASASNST
Chain of Glycogen synthase kinase-3 alpha (P49840 whole entry): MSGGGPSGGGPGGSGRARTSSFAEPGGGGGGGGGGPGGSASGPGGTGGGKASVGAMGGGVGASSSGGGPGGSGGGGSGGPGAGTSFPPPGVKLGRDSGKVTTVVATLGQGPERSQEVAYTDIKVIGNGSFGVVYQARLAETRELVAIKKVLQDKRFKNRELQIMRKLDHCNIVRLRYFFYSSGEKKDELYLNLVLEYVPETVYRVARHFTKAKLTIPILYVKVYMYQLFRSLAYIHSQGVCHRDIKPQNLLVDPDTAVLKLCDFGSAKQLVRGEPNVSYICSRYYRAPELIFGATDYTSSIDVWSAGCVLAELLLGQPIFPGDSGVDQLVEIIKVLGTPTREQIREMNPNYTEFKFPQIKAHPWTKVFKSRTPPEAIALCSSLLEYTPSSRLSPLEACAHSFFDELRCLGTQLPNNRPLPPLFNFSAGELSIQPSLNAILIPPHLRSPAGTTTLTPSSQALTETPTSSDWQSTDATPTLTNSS

O=C(Cc1cccs1)N(Cc1ccco1)C1(C(=O)NC2CCCCC2)CCCCC1
active: EC50 [1] 159 µM | EC50 [2] 24.2 µM | EC50 [3] 431 µM

Fc1ccc(CSc2nnc(-c3ccncc3)o2)cc1
active: IC90 [4] 4 µM | AC50 [5] 3.37 µM | AC50 [6] 0.578 µM | IC90 [7] 4 µM

Nc1nc(NCCCN2CCOCC2)nc(Nc2cccc(Cl)c2)c1[N+](=O)[O-]
active: AC50 [5] 0.429 µM | AC50 [6] 0.253 µM

O=[N+]([O-])c1ccc(-c2c[nH]c(SC(c3ccccc3)c3ccccc3)n2)cc1
inactive: IC50 (CHO-K1) > 66.2 µM | IC50 (Orexin receptor type 2 [10]) > 50 µM | IC50 [15] 32.6 µM | IC50 (Orexin receptor type 2 [16]) 29.7 µM
active: AC50 [8] 19 µM | IC50 [9] 7.34 µM | AC50 [11] 19.1 µM | IC50 [12] 5.72 µM | EC50 (Streptokinase A) 15.2 µM | AC50 [13] 7.88 µM | EC50 [14] 6.07 µM | AC50 [17] 22.2 µM | AC50 (CAAX prenyl protease 2) 2.05 µM
> 150 µM (not active): EC50 (Streptococcus)
